# According to patent US20220370606A1, “Combination Treatments Of Cancer Comprising A TLR Agonist” (Pfizer Inc., priority 2018, published 2022):
# Columns and labels:
# Type in all cases: in vivo, mouse
# [1] = system: effector T cells in the tumor (TILs) (CD8+/CD44+ cells); test: Example 5: activated effector T cells in the tumor (TILs) of B16F10 tumor mice (FACS); conditions: 24 hours after treatment, 5 mg/kg, mean from 5 mice
# Experimental: (§1) This example illustrates activation of immune cells in a mouse tumor model in response to a TLR3 or TLR9 agonist.
# (§2) Six to eight week old female C57BL/6 mice were purchased from the Jackson Laboratories. All animals were housed in a pathogen free vivarium facility at Pfizer and experiments were conducted according to the protocols in accordance with the Institutional Animal Care and Use Committee (IACUC) guidelines.
# (§3) The B16F10 melanoma cell line was purchased from American Type Culture Collection (ATCC). Cells were cultured in Dulbecco's Modified Eagle's Medium (DMEM) supplemented with 10% fetal bovine serum (FBS), 2 mM L-glutamine at 37° C. in 5% carbon dioxide (CO2), and IMPACT-tested for pathogens at Research Animal Diagnostic Laboratory (RADIL) (Columbia, Mo.). Pathogen-free cells growing in an exponential growth phase were harvested and used for tumor inoculation.
# (§4) The TLR3 agonist was polyinosine-polycytidylic acid [poly(I:C)], high molecular weight [a synthetic analog of double-stranded RNA (dsRNA)], purchased from InvivoGen. The TLR9 agonist was CpG24555
# On day 0, C57BL/6 mice were inoculated subcutaneously at the right flank with 5×10^5 B16F10 cells in PBS. […] The treatment groups were 1) PBS (control); 2) poly(I:C) (TLR3 agonist); 3) CpG24555 (TLR9 agonist). Treatment was started on the same day as randomization. […]
# [2] = system: dendritic cells in the spleen (CD11c+/CD11b+/CD8+ cells); test: Example 5: activated dendritic cells in the spleen of B16F10 tumor mice (FACS); conditions: 24 hours after treatment, 5 mg/kg, mean from 5 mice
# Experimental: as §1, §2, §3, §4
# (§5) On day 0, C57BL/6 mice were inoculated subcutaneously at the right flank with 5×10^5 B16F10 cells in PBS. […] The treatment groups were 1) PBS (control); 2) poly(I:C) (TLR3 agonist); 3) CpG24555 (TLR9 agonist). Treatment was started on the same day as randomization. Poly(I:C) and CpG24555 were dosed at 5 mg/kg, in phosphate buffered saline (PBS) (Life Technologies).
# (§6) 24 hours after treatment, the mice were euthanized and their spleen, draining lymph nodes, and B16F10 tumor were harvested. The harvested spleen, draining lymph nodes, and B16F10 tumor were dissociated to single cell suspensions, and then stained for evaluation of multiple markers by FACS analysis. To evaluate dendritic cell activation, cells were incubated with anti-CD11c, anti-CD11b, and anti-CD8 mAbs, and additionally one of anti-CD40, anti-CD86, or anti-PD-L1 mAbs. To evaluate effector T cell activation, cells were incubated with anti-CD8 and anti-CD44 mAbs, and additionally one of anti-OX40 or anti-4-1BB mAbs. […]
# B16F10 melanoma tumors [3] = test: Example 3A: TLR3 agonist with anti-PD-1, anti-OX40, anti-4-1BB antibodies, murine B16F10 melanoma model; conditions: poly(I:C) 2.5 mg/kg it x1 day 9, anti-PD-1 15, anti-OX40 5, anti-4-1BB 3 mg/kg ip x3
# Excerpt: This example illustrates the therapeutic activity of a TLR3 agonist in combination with i) an antagonist anti-PD-1 antibody; ii) an antagonist anti-PD-1 antibody and an agonist anti-OX40 antibody; iii) an antagonist anti-PD-1 antibody and an agonist anti-4-1-BB antibody; and iv) an antagonist anti-PD-1 antibody, an agonist anti-4-1-BB antibody, and an agonist anti-OX40 antibody in a murine B16F10 melanoma model.
# as §2
# as §3, with “MO).” for “Mo.).”
# (§7) The TLR3 agonist was polyinosine-polycytidylic acid [poly(I:C)], high molecular weight [a synthetic analog of double-stranded RNA (dsRNA)], purchased from InvivoGen. Poly(I:C) was dosed at 2.5 mg/kg, in phosphate buffered saline (PBS) (Life Technologies), intratumorally (it) for one dose 9 days after tumor inoculation.
# (§8) Therapeutic mouse anti-mouse 4-1BB mAb (mouse immunoglobulin G1 [mIgG1]), derived from the parental clone MAB9371 (R&D Systems), was prepared in-house. Therapeutic mouse anti-OX40 antibodies with the mIgG1 isotype (anti-OX40 mIgG1) were derived from parental clone OX86 in house. Therapeutic mouse anti-mouse PD-1 mAb (mIgG1) was prepared in-house. Anti-PD-1, anti-OX40 antibody and anti-4-1BB antibodies were dosed at 15 mg/kg, 5 mg/kg and 3 mg/kg, respectively, in phosphate buffered saline (PBS) (Life Technologies), and dosed at 0.2 mL per mouse intraperitoneally (ip) for 3 doses 3 to 4 days apart.
# (§9) C57BL/6 mice were inoculated subcutaneously at the right flank with 0.3×10^6 B16F10 cells in 0.1 mL of PBS. When tumors reached target size, mice were randomized into treatment groups. Treatment was started on the same day as randomization. Tumor size was measured 3-4 times weekly in 2 dimensions using a caliper, and the volume was calculated in cubic millimeters using the formula: V=0.5 L×W^2 where L is the longest diameter of the tumor and W is the diameter perpendicular to L. Body weight was recorded weekly.
# Results from Example 3A are shown in FIGS. 3A-3L and summarized in Table 3 below [mean tumor size±standard deviation (SD)]. Statistical analyses were performed using GraphPad Prism 6.0. 2-way ANOVA was applied to compare the statistical differences among multiple groups relative to the isotype control or other treatment groups. P<0.05 was considered as significant difference. Tumor measurements are in mm^3. For most treatment groups, more days post-tumor inoculation (also referred to as “days post implantation”) are shown in FIGS. 3A-3L than in the corresponding information in Table 3 (due to the reduction in the number of mice in most groups over the course of the study, and the increase in SD with a reduced number of mice).
# B16F10 melanoma tumors [4] = test: Example 1: TLR3 agonist with anti-OX40 and/or anti-4-1BB antibody, murine B16F10 melanoma model; conditions: poly(I:C) 2.5 mg/kg it x1 day 9, anti-OX40 5 mg/kg, anti-4-1BB 3 mg/kg ip x3
# Experimental: This example illustrates the therapeutic activity of a TLR3 agonist in combination with one or both of: i) an agonist anti-OX40 antibody and ii) an agonist anti-4-1BB antibody in a murine B16F10 melanoma model.
# as §2, §3, §7
# as §8, with “Anti-OX40” for “Therapeutic mouse anti-mouse PD-1 mAb (mIgG1) was prepared in-house. Anti-PD-1, anti-OX40”, “at” for “at 15 mg/kg,”
# as §9, with “0.3 x 10^6” for “0.3×10^6”
# Results are shown in FIGS. 1A-1H and summarized in Table 1 below [mean tumor size±standard deviation (SD)]. Statistical analyses were performed using GraphPad Prism 6.0. 2-way ANOVA was applied to compare the statistical differences among multiple groups relative to the isotype control or other treatment groups. P <0.05 was considered as significant difference. Tumor measurements are in mm^3. For most treatment groups, more days post-tumor inoculation (also referred to as “days post implantation”) are shown in FIGS. 1A-1 H than in the corresponding information in Table 1 (due to the reduction in the number of mice in most groups over the course of the study, and the increase in SD with a reduced number of mice).
# [5] = system: dendritic cells in the draining lymph nodes (CD11c+/CD11b+/CD8+ cells); test: Example 5: activated dendritic cells in the draining lymph nodes of B16F10 tumor mice (FACS); conditions: 24 hours after treatment, 5 mg/kg, mean from 5 mice
# Experimental: as §1, §2, §3, §4, §5, §6
substance,measurement,setting,value
polyinosine-polycytidylic acid [TLR3 agonist],% 4-1BB+ of CD8+/CD44+ cells (activated effector T cells),[1],36.8%
same,% OX-40+ of CD8+/CD44+ cells (activated effector T cells),[1],55.3%
same,% CD40+ of CD11c+/CD11b+/CD8+ cells (activated dendritic cells),[2],20%
same,% CD86+ of CD11c+/CD11b+/CD8+ cells (activated dendritic cells),[2],22.2%
same,% PD-L1+ of CD11c+/CD11b+/CD8+ cells (activated dendritic cells),[2],23%
same,Mean Tumor Size,B16F10 melanoma tumors [3]; day 9 post-tumor inoculation,74 mm^3
same,Mean Tumor Size,B16F10 melanoma tumors [3]; day 13 post-tumor inoculation,156 mm^3
same,Mean Tumor Size,B16F10 melanoma tumors [3]; day 15 post-tumor inoculation,236 mm^3
same,Mean Tumor Size,B16F10 melanoma tumors [3]; day 17 post-tumor inoculation,349 mm^3
same,Mean Tumor Size,B16F10 melanoma tumors [3]; day 20 post-tumor inoculation,796 mm^3
same,Mean Tumor Size,B16F10 melanoma tumors [3]; day 22 post-tumor inoculation,1206 mm^3
same,Mean Tumor Size,B16F10 melanoma tumors [4]; day 9 post-tumor inoculation,76 mm^3
same,Mean Tumor Size,B16F10 melanoma tumors [4]; day 10 post-tumor inoculation,116 mm^3
same,Mean Tumor Size,B16F10 melanoma tumors [4]; day 12 post-tumor inoculation,151 mm^3
same,Mean Tumor Size,B16F10 melanoma tumors [4]; day 14 post-tumor inoculation,196 mm^3
same,Mean Tumor Size,B16F10 melanoma tumors [4]; day 16 post-tumor inoculation,309 mm^3
same,Mean Tumor Size,B16F10 melanoma tumors [4]; day 18 post-tumor inoculation,405 mm^3
same,Mean Tumor Size,B16F10 melanoma tumors [4]; day 20 post-tumor inoculation,678 mm^3
same,% CD40+ of CD11c+/CD11b+/CD8+ cells (activated dendritic cells),[5],9.9%
same,% CD86+ of CD11c+/CD11b+/CD8+ cells (activated dendritic cells),[5],7.5%
same,% PD-L1+ of CD11c+/CD11b+/CD8+ cells (activated dendritic cells),[5],9%
